These results are taken from patent US10799442B2, “Compounds useful in the treatment and/or care of the skin, hair, nails, and/or mucous membranes” (LUBRIZOL ADVANCED MATERIALS, INC., priority 2015, dated 2020).

In this data set the test system is p63. Briefly: Activation of the pool of epidermal stem cell in reconstructed human epidermal tissue (RHE), p63 immunohistochemistry. The data set is classed as cell-based. The note with it: p63 immunofluorescence, 10 μg/ml, 24 hours. Here is the method:
Therefore, an increase in the expression of p63 would mean a higher regenerative potential compared to basal conditions.
The SkinEthic human tissue models (RHE) are removed from the agarose-nutrient solution in the multiwell plate immediately after arrival and are placed in a 6-well plate in which each well has previously be filled with SkinEthic Growth Medium (EPISKIN). After overnight incubation at 37° C., 5% CO2, the medium is removed. Then, the tissue models are incubated with the candidate peptide at 10 μg/ml at 37° C. and 5% CO2 for 24 hours. The tissue models are embedded in Tissue Teck OCT compound (Aname™). […]
The expression of p63 is evaluated by immunohistochemistry with a specific primary antibody and a fluorescently labelled secondary antibody. […] At the end of the incubation, slides are washed with PBS and are incubated with Alexa Fluor® 488 Goat anti-rabbit IgG (H+L) secondary antibody (Invitrogen, green fluorescence emission dye) 1 hour at room temperature in a dark humidified chamber. […]
Microscopical observations are performed with a Zeiss fluorescence microscope and photographs of each condition are taken with the associated camera. From each fluorescence image of p63, values of the product of Mean Intensity and Area are quantified and normalized by control (basal condition, treated with SkinEthic Growth Medium). […]

In the case of “Ac-QEMRMQ-OH [DD14024, Ac-Gln-Glu-Met-Arg-Met-Gln-OH]”, the “Fold induction respect to basal conditions” value (1 experiment) was 1.63 ± 0.16 and the “Fold induction respect to basal conditions” value (mean of four experiments) is listed as 2.11 ± 0.23.
